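How tested: cells in 96-well plates exposed to compound for 48 hours at five concentrations. GI50 marks 50% less growth. At the TGI there is no net growth.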
Experiments:
Experiment in all cases: inhibition of tumour cell growth, NCI panel, 48 h; in the data active = GI50 below about 0.43 µM; inactive = the rest
[1] = system: EKVX NSCLC
[2] = system: A549 NSCLC
[3] = system: HL-60(TB) leukemia
[4] = system: SW-620 colon
[5] = system: NCI-H522 lung
[6] = system: MCF7 breast
[7] = system: KM12 colon
[8] = system: SNB-75 CNS
[9] = system: HCT-116 colon
[10] = system: HCT-15 colon
[11] = system: SK-MEL-5 melanoma
[12] = system: ACHN renal
[13] = system: PC-3 prostate
[14] = system: NCI-H226 lung
[15] = system: SF-539 CNS
[16] = system: UACC-62 melanoma
[17] = system: MDA-N
[18] = system: CCRF-CEM leukemia
[19] = system: SK-MEL-2 melanoma
[20] = system: SN12C renal
[21] = system: OVCAR-5 ovarian
[22] = system: SF-295 CNS
[23] = system: OVCAR-4 ovarian
[24] = system: OVCAR-8 ovarian
[25] = system: U251 CNS
[26] = system: RXF 393 renal
[27] = system: SNB-19 CNS
[28] = system: T-47D breast
[29] = system: COLO 205 colon
[30] = system: K-562 leukemia
[31] = system: LOX IMVI melanoma
[32] = system: DU-145 prostate
[33] = system: RPMI-8226 leukemia
[34] = system: M14 melanoma
[35] = system: A498 renal
[36] = system: MOLT-4 leukemia
[37] = system: CAKI-1 renal
[38] = system: HS 578T breast
[39] = system: HCC-2998 colon
[40] = system: TK-10 renal
[41] = system: SK-OV-3 ovarian
[42] = system: IGROV1 ovarian
[43] = system: UO-31 renal
[44] = system: SF-268 CNS
[45] = system: NCI-H23 lung
[46] = system: NCI/ADR-RES ovarian
[47] = system: SK-MEL-28 melanoma
[48] = system: MDA-MB-231 breast
[49] = system: MALME-3M melanoma
[50] = system: HT29 colon
[51] = system: MDA-MB-435
[52] = system: HOP-62 NSCLC
[53] = system: NCI-H460 lung
[54] = system: UACC-257 melanoma
[55] = system: HOP-92 NSCLC
[56] = system: 786-0 renal
[57] = system: OVCAR-3 ovarian
[58] = system: BT-549 breast
[59] = system: SR leukemia

CC(C)(CCCCC(C)(C)C1NC(=O)N1)C1NC(=O)N1
> 10 µM: TGI [1] | TGI [2] | TGI [3] | TGI [4] | TGI [5] | TGI [6] | TGI [7] | TGI [8] | TGI [9] | TGI [10] | TGI [11] | TGI [12] | TGI [13] | TGI [14] | TGI [15] | TGI [16] | TGI [17] | TGI [18] | TGI [19] | TGI [20] | TGI [21] | TGI [22] | TGI [23] | TGI [24] | TGI [25] | TGI [26] | TGI [27] | TGI [28] | TGI [29] | TGI [30] | TGI [31] | TGI [32] | TGI [33] | TGI [34] | TGI [35] | TGI [36] | TGI [37] | TGI [38] | TGI [39] | TGI [40] | TGI [41] | TGI [42] | TGI [43] | TGI [44] | TGI [45] | TGI [46] | TGI [47] | TGI [48] | TGI [49] | TGI [50] | TGI [51] | TGI [52] | TGI [53]

COC(=O)[C@]1(c2cc3ccccc3[nH]2)CC2CN(CC(=O)N(C)OC)C1CC2(OC)OC (stereo not given in full)
57.7 µM: TGI [56]
39.6 µM: TGI [33]
39.5 µM: TGI [3]
71.9 µM: TGI [13]
59.8 µM: TGI [58]
44.6 µM: TGI [5]
> 100 µM: TGI [1] | TGI [2] | TGI [4] | TGI [54] | TGI [6] | TGI [7] | TGI [8] | TGI [10] | TGI [11] | TGI [55] | TGI [12] | TGI [14] | TGI [15] | TGI [16] | TGI [17] | TGI [19] | TGI [20] | TGI [21] | TGI [22] | TGI [23] | TGI [24] | TGI [26] | TGI [27] | TGI [29] | TGI [31] | TGI [32] | TGI [34] | TGI [35] | TGI [57] | TGI [39] | TGI [40] | TGI [41] | TGI [42] | TGI [43] | TGI [44] | TGI [45] | TGI [46] | TGI [47] | TGI [48] | TGI [49] | TGI [50] | TGI [52] | TGI [53]
56 µM: TGI [37]
32 µM: TGI [18]
70.7 µM: TGI [9]
57.1 µM: TGI [28]
30.7 µM: TGI [25]
91.3 µM: TGI [51]
66.4 µM: TGI [30]

Nc1nc(N)c2c(n1)NC(c1ccccc1)C1CCc3ccccc3C1=N2 (stereo not given)
14.4 µM: TGI [50] | TGI [53]
20.8 µM: TGI [8]
17.4 µM: TGI [25]
15.4 µM: TGI [57]
47.7 µM: TGI [13]
20 µM: TGI [44]
20.2 µM: TGI [47]
6.01 µM: TGI [3]
18.8 µM: TGI [15]
> 100 µM: TGI [18] | TGI [59]
30 µM: TGI [38]
19.4 µM: TGI [42] | TGI [45]
20.3 µM: TGI [48]
17.1 µM: TGI [10] | TGI [23] | TGI [32]
15.6 µM: TGI [39]
2.25 µM: TGI [11]
15.1 µM: TGI [1] | TGI [31]
25.4 µM: TGI [24]
21.2 µM: TGI [5]
87.1 µM: TGI [33]
29.8 µM: TGI [27]
14 µM: TGI [19]
22.7 µM: TGI [41]
26 µM: TGI [2]
28.9 µM: TGI [14]
19.1 µM: TGI [56]
14.7 µM: TGI [36]
25.6 µM: TGI [28]
12.6 µM: TGI [51]
15 µM: TGI [54]
17.9 µM: TGI [49]
13.5 µM: TGI [6]
28 µM: TGI [21]
8.66 µM: TGI [35]
16.8 µM: TGI [12]
13.6 µM: TGI [46]
18.2 µM: TGI [16]
18.3 µM: TGI [37]
18 µM: TGI [34]
19.7 µM: TGI [58]
20.7 µM: TGI [4]
14.8 µM: TGI [40]
10.9 µM: TGI [29]
inactive: GI50 [1] 2.68 µM | GI50 [2] 7.11 µM | GI50 [3] 2.37 µM | GI50 [4] 6.3 µM | GI50 [54] 3.72 µM | GI50 [5] 4.53 µM | GI50 [6] 3.25 µM | GI50 [7] 4.07 µM | GI50 [8] 7.95 µM | GI50 [9] 2.97 µM | GI50 [10] 4.06 µM | GI50 [11] 0.638 µM | GI50 [55] 2.55 µM | GI50 [12] 4.38 µM | GI50 [13] 2.82 µM | GI50 [14] 5.96 µM | GI50 [15] 5.81 µM | GI50 [16] 3.11 µM | GI50 [18] 4.47 µM | GI50 [19] 3.48 µM | GI50 [20] 7.33 µM | GI50 [21] 14.2 µM | GI50 [22] 1.69 µM | GI50 [23] 3.06 µM | GI50 [24] 4.71 µM | GI50 [25] 4.65 µM | GI50 [56] 5.99 µM | GI50 [26] 4.89 µM | GI50 [27] 15.6 µM | GI50 [28] 4.57 µM | GI50 [29] 3.07 µM | GI50 [30] 3.42 µM | GI50 [31] 3.79 µM | GI50 [32] 4.38 µM | GI50 [33] 3.21 µM | GI50 [34] 4.88 µM | GI50 [35] 2.29 µM | GI50 [36] 2.7 µM | GI50 [37] 3.97 µM | GI50 [57] 3.48 µM | GI50 [38] 5.85 µM | GI50 [39] 3.82 µM | GI50 [40] 3.01 µM | GI50 [59] 4.52 µM | GI50 [41] 10.3 µM | GI50 [42] 4.45 µM | GI50 [43] 2.5 µM | GI50 [58] 5.42 µM | GI50 [44] 6.96 µM | GI50 [45] 4.56 µM | GI50 [46] 3.13 µM | GI50 [47] 7.72 µM | GI50 [48] 6.02 µM | GI50 [49] 2.13 µM | GI50 [50] 3.66 µM | GI50 [51] 2.93 µM | GI50 [52] 7.87 µM | GI50 [53] 3.81 µM
10.8 µM: TGI [55]
12.7 µM: TGI [9]
13.7 µM: TGI [43]
19 µM: TGI [26]
21.3 µM: TGI [20] | TGI [52]
14.9 µM: TGI [7]
8.12 µM: TGI [22]

O=c1[nH]nc(Cn2c3ccc(Br)cc3c3nc4ccccc4nc32)n1C1CCCCC1
63.3 µM: TGI [55]
46 µM: TGI [15]
40.9 µM: TGI [45]
59.2 µM: TGI [47]
77.6 µM: TGI [33]
57.4 µM: TGI [35]
81.1 µM: TGI [16]
52.8 µM: TGI [52]
> 100 µM: TGI [1] | TGI [2] | TGI [4] | TGI [54] | TGI [6] | TGI [7] | TGI [8] | TGI [9] | TGI [10] | TGI [11] | TGI [12] | TGI [14] | TGI [17] | TGI [19] | TGI [20] | TGI [21] | TGI [22] | TGI [23] | TGI [24] | TGI [25] | TGI [56] | TGI [26] | TGI [27] | TGI [28] | TGI [29] | TGI [30] | TGI [31] | TGI [32] | TGI [34] | TGI [36] | TGI [37] | TGI [57] | TGI [39] | TGI [40] | TGI [59] | TGI [41] | TGI [42] | TGI [43] | TGI [58] | TGI [44] | TGI [46] | TGI [48] | TGI [50] | TGI [51] | TGI [53]
59.8 µM: TGI [13]

COC(=O)C1=CN(C2CCCCC2)C2(c3ccccc3)c3ccccc3C(=O)OC(=O)C12 (stereo not given)
97.2 µM: TGI [26]
> 100 µM: TGI [1] | TGI [2] | TGI [3] | TGI [4] | TGI [54] | TGI [5] | TGI [6] | TGI [7] | TGI [8] | TGI [9] | TGI [10] | TGI [11] | TGI [55] | TGI [12] | TGI [13] | TGI [14] | TGI [15] | TGI [17] | TGI [18] | TGI [19] | TGI [20] | TGI [21] | TGI [22] | TGI [23] | TGI [24] | TGI [25] | TGI [56] | TGI [27] | TGI [29] | TGI [30] | TGI [31] | TGI [32] | TGI [34] | TGI [35] | TGI [36] | TGI [37] | TGI [57] | TGI [39] | TGI [40] | TGI [41] | TGI [42] | TGI [43] | TGI [58] | TGI [44] | TGI [45] | TGI [46] | TGI [47] | TGI [48] | TGI [49] | TGI [50] | TGI [51] | TGI [52] | TGI [53]

Nc1c(N2CCOCC2)c(=O)nc2[nH]/c(=C\c3ccccc3)c(=O)n12
> 100 µM: TGI [1] | TGI [2] | TGI [4] | TGI [54] | TGI [5] | TGI [6] | TGI [7] | TGI [8] | TGI [9] | TGI [10] | TGI [11] | TGI [55] | TGI [12] | TGI [14] | TGI [15] | TGI [17] | TGI [18] | TGI [20] | TGI [21] | TGI [22] | TGI [23] | TGI [24] | TGI [25] | TGI [56] | TGI [26] | TGI [27] | TGI [28] | TGI [29] | TGI [31] | TGI [32] | TGI [33] | TGI [34] | TGI [35] | TGI [36] | TGI [37] | TGI [38] | TGI [39] | TGI [40] | TGI [59] | TGI [41] | TGI [42] | TGI [43] | TGI [44] | TGI [45] | TGI [46] | TGI [47] | TGI [48] | TGI [49] | TGI [50] | TGI [51] | TGI [53]
93 µM: TGI [30]
57.3 µM: TGI [3]
